Measurements: EP4458977A1, “SELF-ASSEMBLING PEPTIDE AMPHIPHILES AS RETROVIRAL TRANSDUCTION ENHANCERS” (Max-Planck-Gesellschaft zur Förderung der Wissenschaften …, priority 2023, dated 2024)
Entries after “also recorded” stand apart in the source; their conditions may differ. Where a SMILES comes first, the peptide text is derived from it. Where no end group is shown, it is not given here. The star is where a group is joined. Palmitoyl = CCCCCCCCCCCCCCCC(=O)*; Lauroyl = CCCCCCCCCCCC(=O)*; Nonanoyl = CCCCCCCCC(=O)*

Tests used:
[1] = Thioflavin T (ThT) fluorescence assay; assay type: physicochemical; design: key to ThT: + = ThT active; - = no ThT fluorescence observed; conditions: for ThT: ThT fluorescence, 1 mg/mL, PBS; for N-fold ThT-fluorescence: relative to PBS control
Description: Transmission electron microscopy (TEM) measurements, Thioflavin (ThT), zeta-potential measurements for fibril characterization were prepared and conducted according to prior art procedures. […] Fibrils were defined as distinct, if no visible structures could be identified in fluorescence and brightfield microscopy. A peptide fibril was considered as ThT-active if the fluorescence intensity was at least twice as strong compared to the control (PBS containing 10% DMSO).

[2] = TEM of peptide assemblies (fibril formation / assembly); assay type: physicochemical; design: key to Fibril Formation: "1" means fibril formation observed; "0" means no fibrils observed; conditions: for TEM morphology (in words): 1 mg/mL in PBS; for Assembly without hydrophob residue: corresponding peptide without hydrophobic moiety; for Assembly: peptide amphiphile; for Fibril Formation: via TEM
Summary of the method: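 Peptides predissolved in DMSO at 10 mg/mL (stock), diluted in PBS to 650 µM or 1 mg/mL final and incubated 1 d at rt (20–25 °C) to form fibrils. Other concentrations obtained by diluting preformed fibrils; assemblies imaged by TEM.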

HeLa cells [3] = experiment: Confocal laser scanning microscopy and degradation study with PA1-3 and HeLa cells; assay type: cell-based; conditions: for association with cellular membranes: HeLa cells, 30 min
Description: 4 µL of the preformed peptide fibrils (1 mg mL^-1) were diluted with 4 µL Proteostat (Enzo Life Science, 1 µL stock in 999 µL PBS) and incubated for 10 min and further diluted with medium to receive a final peptide concentration of 20 µg mL^-1. The nucleus of the HeLa cells was stained with Hoechst 33342 (NucBlue™, Thermo Fisher Scientific). The peptide solution was transferred to the HeLa cells and incubated for 30 min at 37°C before washing three times with PBS. […] For the evaluation of aggregate degradation, the samples were further incubated at 37°C for 3 d and analyzed without any additional washing step. […] The number of aggregates were determined by accumulating the number of aggregates larger than 10 µm^2 in an area of 581.25 × 581.25 µm, repeated in three technical triplicates.

[4] = Fluorescence microscopy of ThT-stained fibrils (µm-sized aggregates); assay type: physicochemical; conditions: for fluorescent, µm-sized aggregates (ThT staining): 1 mg/mL stained with 50 µM ThT
Summary of the method: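 Fibrils (1 mg mL^-1) mixed 1:9 with 50 µM ThT, giving 0.1 mg mL^-1 stained fibrils on glass. Imaged under 10x air objective with excitation 480/40 nm and emission 527/30 nm. Fibrils called distinct when no visible structures appeared in fluorescence or brightfield.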

[5] = Zeta-potential measurement (dynamic light scattering); assay type: physicochemical; conditions: for Zeta Potential / mV: 1 mg/mL, PBS; for Count Rate / kcps: derived count rate of scattered light during zeta-potential measurements
Description: Zeta-potential: 60 µL of the peptides (1 mg mL-1) were diluted in 600 µL, 1 mM KCI solution and placed in a disposable folded capillary cuvette. All zeta-potential measurements were conducted by dynamic light scattering technology (Zetasizer, Malvern Instruments) and in triplicates for each sample. The derived count rate of the zeta potential measurement was used as information on the light scattering intensity and turbidity of the sample as a further indicator for microscopic aggregation.

[6] = ATR-FT-IR determination of β-sheet content; assay type: physicochemical; conditions: for β-sheet content / %: peak integration of parallel β-sheet at 1630 cm-1, 2nd derivative of ATR-IR spectra; for β-sheet amount: 1 mg/mL in PBS lyophilized, integral at 1630 cm^-1 relative to 1650-1700 cm^-1
Summary of the method: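 Lyophilized fibril samples measured by diamond ATR-FT-IR, 2 cm^-1 resolution, 64 scans averaged. β-sheet content taken from the second-derivative spectrum as the 1630 cm-1 peak integral relative to the 1650-1700 cm-1 integral.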

HIV-1 = conditions: for Infectivity enhancing N fold at 1.3 µM: relative to virus only;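 for all read-outs here: TZM-bl reporter cells exposed to HIV-1 with peptide fibrils, infection read out as β-galactosidase luminescence, compared with virus alone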
Description: HIV-1 Infection Assay with TZM-bl cells: The effect of peptide fibrils on HIV-1 infection was studied via a luminescence assay for β-galactosidase, which was reported by TZM-bl cells upon infection. The HIV-1 infection assay was conducted in three technical replicates and repeated in three independent experiments unless stated otherwise.

HeLa cells [7] = experiment: Confocal laser scanning microscopy and degradation study with PA library and HeLa cells; assay type: cell-based; conditions: for association with cellular membranes: 2 µg added to 20.000 HeLa cells, 30 min; for degradability (in words) / Degradability / % (rel. to initial particles > 10 µm^2): HeLa cells; for degradability (in words): 3 days; for Degradability / % (rel. to initial particles > 10 µm^2): 3 d relative to 30 min; for aggregate number decreases / degraded in presence of HeLa cells within 3 days: d3 relative to d0
Summary of the method: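 HeLa cells (20,000/well) got Proteostat-stained PAs (2 µg peptide per 20.000 cells) with Hoechst nuclear stain, 30 min at 37°C, PBS-washed, then held 3 d at 37°C unwashed. Confocal imaging at d0 and d3 counted aggregates >10 µm^2 in 1008 × 1008 µm, three technical replicates. Degradation taken as d3/d0 aggregate number.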

[8] = Zeta-potential measurement (dynamic light scattering); assay type: physicochemical
CD4+ T cells = experiment: γ-retroviral transduction assay (GALV-RV, GFP+ cells); assay type: cell-based, Human
Description: (§1) γ-Retroviral transduction Assay with Jurkat and CD4+ T cells: The effect of peptide fibrils on retroviral transduction of Jurkat cells was analyzed 3 days post transduction by determining the percentage of GFP + cells by flow cytometry. The assay was conducted according prior art procedures.
Human CD4+ T cells were isolated from a Buffy coat using RosetteSep™ Human CD4+ Enrichment Cocktail ([…] Technologies) according to manufacturer's protocol. Isolated T cells were activated using Dynabeads™ Human T-Activator CD3/CD28 (GibcoTM) according to manufacturer's protocol in presence of 10 ng mL^-1 IL-2 (Miltenyi Biotec) for three days. After 3 days the magnetic Dynabeads were removed using a magnet and T cells were cultured in presence of 9 ng mL^-1 IL-7 (Miltenyi Biotec) and 10 ng mL^-1 IL-15 (Miltenyi Biotec). After 1 day 5×10^5 T cells were transduced with GALV-γ-RV in absence and presence of PA1, PA2, EF-C (0.26, 1.3 and 6.5 µM) and Vectofusin®-1 (10 µg mL^-1; Miltenyi Biotec), or RetroNectin (20 µg mL^-1; Takara Bio). […] After 3 days GFP+ T cells were analyzed by flow cytometry. Viability was determined using LIVE/DEAD™ Fixable Aqua Dead Cell Stain Kit (ThermoFisher Scientific) according to manufacturer's protocol.

Jurkat cells = experiment: as above; assay type: cell-based
Description: as §1

Row | Compound | ThT [1] | TEM morphology (in words) [2] | association with cellular membranes (HeLa cells [3]) | formation of µm-sized aggregates in aqueous medium / PBS (in words) [4] | zeta-potential (in words) [5] | Zeta Potential / mV [5] | β-sheet content / % [6] | association with cellular membranes (HeLa cells [7]) | degradability (in words) (HeLa cells [7]) | Degradability / % (rel. to initial particles > 10 µm^2) (HeLa cells [7]) | aggregate number decreases / degraded in presence of HeLa cells within 3 days (HeLa cells [7]) | Zeta-Potential / mV [8] | N-fold ThT-fluorescence [1] | Assembly without hydrophob residue [2] | Assembly [2] | Fibril Formation ([2]; hydrophobic moiety exchange) | fluorescent, µm-sized aggregates (ThT staining) [4] | Count Rate / kcps [5] | β-sheet amount [6] | Infectivity enhancing N fold at 1.3 µM (HIV-1) | other results
1 | CCCCCCCCCCCCCCCC(=O)N[C@H](C(=O)N[C@H](C(=O)N[C@H](C(=O)N[C@@H](C)C(=O)N[C@@H](C)C(=O)N[C@@H](C)C(=O)N[C@@H](CCC(=O)O)C(=O)N[C@@H](CCC(=O)O)C(=O)N[C@@H](CCC(=O)O)C(N)=O)C(C)C)C(C)C)C(C)C [PA3] (Palmitoyl-VVVAAAEEE-NH2) | + | distinct fibrils | did not associate with cells | does not form µm-sized aggregates in PBS; also recorded: did not bundle or adopt µm-sized aggregates in PBS | negative zeta-potential | -29.8 ± 2.7 mV | 61% |  |  |  |  |  |  |  |  |  |  |  |  |  | enhancement of HIV-1 infection / transduction (in words) (HIV-1; 6.5 µM, 1.3 µM, 0.26 µM): no transduction enhancement
2 | CCCCCCCCCCCC(=O)N[C@H](C(=O)N[C@H](C(=O)N[C@H](C(=O)N[C@@H](C)C(=O)N[C@@H](C)C(=O)N[C@@H](C)C(=O)N[C@@H](CCCCN)C(=O)N[C@@H](CCCCN)C(=O)N[C@@H](CCCCN)C(N)=O)C(C)C)C(C)C)C(C)C [Pat7] (Lauroyl-VVVAAAKKK-NH2) |  | able to form fibrils; also recorded: fibrillar morphologies |  | form µm-sized aggregates | positive zeta-potential |  |  | association with cellular membranes | non-degradable PA | -32% | 32% | 19.4 mV | 185.7 | No | Yes | 1 | fluorescent, µm-sized aggregates | 3558.1 kcps | 49% | 6±1 N fold | enhances infectivity at 1.3 µM concentration, times more efficient compared to virus only infection (HIV-1): 6 times
3 | CCCCCCCCCCCCCCCC(=O)N[C@@H](Cc1ccccc1)C(=O)N[C@@H](CCC(N)=O)C(=O)N[C@@H](Cc1ccccc1)C(=O)N[C@@H](CCCCN)C(=O)N[C@@H](Cc1ccccc1)C(=O)N[C@@H](CCCCN)C(=O)N[C@@H](CS)C(N)=O [PA2, C16-FQFKFKC-NH2] (Palmitoyl-FQFKFKC-NH2) | + |  | association with cellular membranes | formation of µm-sized aggregates; also recorded: microscopic clusters of fibrils were formed | positive zeta-potential | +19.2 ± 3.4 mV | 59% |  |  |  |  |  |  |  |  |  |  |  |  |  | transduction enhancement (in words) (CD4+ T cells): activity in the range of commercially available gold-standard enhancers RetroNectin and Vectofusin-1; transduction enhancement (in words) (Jurkat cells): strong transduction enhancement similar to EF-C; degraded over the course of 3 days in the presence of HeLa cells (HeLa cells [3]; 4 µg peptide added to 40,000 cells): 53%
4 | C16-ester-SVVVAAAKKK-NH2 (S(Palmitoyl)VVVAAAKKK-NH2; N-terminus assumed; SMILES CCCCCCCCCCCCCCCC(=O)OC[C@H](N)C(=O)N[C@H](C(=O)N[C@H](C(=O)N[C@H](C(=O)N[C@@H](C)C(=O)N[C@@H](C)C(=O)N[C@@H](C)C(=O)N[C@@H](CCCCN)C(=O)N[C@@H](CCCCN)C(=O)N[C@@H](CCCCN)C(N)=O)C(C)C)C(C)C)C(C)C) [Pat1] |  | fibrillar morphologies |  |  |  |  |  | association with cellular membranes | degraded well, but not as efficient as PA1 or Pat3; also recorded: degradable PA | 31% | 30% | 20.5 mV | 277.1 | No | Yes |  | fluorescent, µm-sized aggregates | 3217.3 kcps | 43% | 17±5 N fold | Fibril Formation ([2]; linkage chemistry exchange): 1; enhances infectivity at 1.3 µM concentration, times more efficient compared to virus only infection (HIV-1): 17 times
5 | CCCCCCCCC(=O)N[C@H](C(=O)N[C@H](C(=O)N[C@H](C(=O)N[C@@H](C)C(=O)N[C@@H](C)C(=O)N[C@@H](C)C(=O)N[C@@H](CCCCN)C(=O)N[C@@H](CCCCN)C(=O)N[C@@H](CCCCN)C(N)=O)C(C)C)C(C)C)C(C)C [Pat8] (Nonanoyl-VVVAAAKKK-NH2) |  | formed fibrils in aqueous medium; also recorded: fibrillar morphologies |  | failed to form µm-sized aggregates in aqueous medium |  |  |  | association with cellular membranes | non-degradable PA | 78% | 78% | 13.5 mV | 37.1 | No | Yes | 1 | fluorescent, µm-sized aggregates | 77.2 kcps | 49% | 2±0 N fold | infectivity enhancement at 1.3 µM concentration compared to virus only infection (in words) (HIV-1): does not enhance infectivity
